According to patent US4550118A, “Heterocyclic compounds” (Ikeda Mohando Co., Ltd., priority 1982, dated 1985):

Experiments:
[1] = target: T1, histamine H2 receptor in atria (Cavia porcellus, UniProt P47747); assay: Histamine H2 receptor inhibition effect by isolated guinea pig right atrium preparation (negative chronotropic effect); format: cell-based, Male Hartley Guinea Pig; details: 5×10^-6 mol sample 3 minutes prior to histamine, mean of five; for Kb: read-out: inhibitory effect of histamine H2 receptor in atria (pA2 value) (converted)
T1 construct: right atrium was isolated; from tissue; host or cells: isolated right atrium of male Hartley guinea pig
Procedure: (B) Measurement of Histamine H2 Receptor Inhibition Effect by Isolated Guinea Pig Right Atrium Preparation
Male Hartley Guinea Pig weighing around 400 g was sacrified by decapitation, and right atrium was isolated. The right atrium was suspended in an organ bath (50 ml) containing modified Ringer solution. Under application of a tensile load of 1 g, the heart rate was recorded by means of a polygraph. Histamine was applied cumulatively from 1×10^-7 mol to 3×10^-4 mol and a cumulative dosage response curve was drawn. Then, 5×10^-6 mol of the sample was administered 3 minutes prios to histamine application. The negative logarithmic value (pA2) of the specimen molarity required for shifting the curve to the right to double concentration was calculated.

[2] = tested on: acid secretion in pylorus-ligated rats; assay: Anti-secretory effect (histamine-stimulated gastric acid secretion) in pylorus-ligated rat; format: in vivo, male wistar rats; details: 30 min before histamine 3 mg/kg s.c., ** at 1% vs control; for inhibition in vivo at 2 mg/kg: Rattus norvegicus, sc, 3 h, 2 mg/kg s.c., n=5, * significant at 5%, read-out: inhibitory effect of acid secretion (%) at 2 mg/kg s.c.
Procedure: (A) Anti-secretory Effect in Pylorus-ligated Rat
After 24 hr fasting, male wistar rats weighing about 160 g were anesthetized by intraperitoreal injection of urethans 1.2 g/kg. Then, after ligating the pylorus and the esophagus, the proventriculus was incised and a double polyethylene cannula was inserted. The gastric wall was washed out with 5 ml of physiological saline every 30 minutes and the amount of acid contained in the saline after washing was measured by titration. After measuring the basal acid secretion of the pylorus ligated rats three times, the compounds of the invention, 2 mg/kg, were administered subcutaneously and, 30 minutes thereafter, histamine 3 mg/kg, was administered also subcutaneously. Then, the amounts of acid secretion were measured for 3 hours. […] Then, an inhibition rate was calculated in accordance with the following formula, in relation to the increment values measured for the control group. [formula]
One group included five examples.

T1 sequence (P47747 whole entry): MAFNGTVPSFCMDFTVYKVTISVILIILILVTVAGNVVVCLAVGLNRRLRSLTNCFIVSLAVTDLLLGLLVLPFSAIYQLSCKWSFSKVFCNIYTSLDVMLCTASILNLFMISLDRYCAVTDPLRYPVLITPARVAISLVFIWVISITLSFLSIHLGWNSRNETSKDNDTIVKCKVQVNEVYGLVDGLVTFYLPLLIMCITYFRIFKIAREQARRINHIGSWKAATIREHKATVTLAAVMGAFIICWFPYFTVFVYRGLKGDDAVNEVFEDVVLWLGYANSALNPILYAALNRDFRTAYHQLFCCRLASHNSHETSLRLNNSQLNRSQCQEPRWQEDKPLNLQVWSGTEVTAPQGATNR

| Compound | inhibitory effect of histamine H2 receptor in atria (pA2 value) [1] | inhibitory effect of acid secretion (%) at 2 mg/kg s.c. ([2]; n=5, * significant at 5%) [%] | Kb [1] [nM] | inhibition in vivo at 2 mg/kg [2] [%] |
| --- | --- | --- | --- | --- |
| 1-methyl-3-pyridylideneimino-5-[2-<5-(2-dimethylaminomethylbenzimidazolyl)methylthio>ethyl]-1H-1,2,4-triazole-5-amine [Example 100] | 5.75 | 72 |  |  |
| CNC(=NC#N)NCCCCOc1ccc2[nH]c(CN(C)C)nc2c1 [Example 2, N-cyano-N'-methyl-N"-[4-<5-(2-dimethylaminomethylbenzimidazolyl)oxy>butyl]guanidine] |  |  | 1510 | 75 |
| CNC(=NC#N)NCCCOc1ccc2[nH]c(CN3CCCC3)nc2c1 [Example 3] |  |  | 1170 | 54 |
| CNC(=NC#N)NCCCOc1ccc2[nH]c(CN3CCCCC3)nc2c1 [Example 5, N-cyano-N'-methyl-N"-{3-[5-<2-(1-piperidinomethyl)benzimidazolyl>oxy]propyl}guanidine] |  |  | 1380 | 65 |
| CNC(=C[N+](=O)[O-])NCCOc1ccc2[nH]c(CN3CCCC3)nc2c1 [Example 25, 1-nitro-2-methylamino-2-[2-<5-(2-(1-pyrrolidinomethyl)benzimidazolyl)oxy>ethylamino]ethylene] |  |  | 631 | 99 |
| CNC(=C[N+](=O)[O-])NCCCOc1ccc2[nH]c(CN3CCCC3)nc2c1 [Example 28, 1-nitro-2-methylamino-2-[3-<5-(2-(1-pyrrolidinomethyl)benzimidazolyl)oxy>propylamino]ethylene] |  |  | 2450 | 64 |
| CNC(=C[N+](=O)[O-])NCCCCOc1ccc2[nH]c(CN3CCCCC3)nc2c1 [Example 30, 1-nitro-2-methylamino-2-{4-[5-<2-(1-piperidinomethyl)benzimidazolyl>oxy]butylamino}ethylene] |  |  | 1380 | 78 |
| CN(C)Cc1nc2cc(CSCCNC(N)=NC#N)ccc2[nH]1 [Example 34, N-cyano-N'-[2-<5-(2-dimethylaminomethylbenzimidazolyl)methylthio>ethyl]guanidine] |  |  | 832 | 52 |
| CNC(=NC#N)NCCCSCc1ccc2[nH]c(CN(C)C)nc2c1 [Example 37, N-cyano-N'-methyl-N"-[3-<5-(2-dimethylaminomethylbenzimidazolyl)methylthio>propyl]guanidine] |  |  | 1660 | 38 |
| CNC(=C[N+](=O)[O-])NCCSCc1ccc2[nH]c(CN(C)C)nc2c1 [Example 42, 1-nitro-2-methylamino-2-[2-<5-(2-dimethylaminomethylbenzimidazolyl)methylthio>ethylamino]ethylene] |  |  | 1450 | 93 |
| C#CCNC(=C[N+](=O)[O-])NCCSCc1ccc2[nH]c(CN(C)C)nc2c1 [Example 44, 1-nitro-2-propargylamino-2-[2-<5-(2-dimethylaminomethylbenzimidazolyl)methylthio>ethylamino]ethylene] |  |  | 631 | 57 |
| CN(C)Cc1nc2cc(CSCCNC(N)=NS(=O)(=O)c3ccccc3)ccc2[nH]1 [Example 46, N-benzenesulfonyl-N'-[2-<5-(2-dimethylaminomethylbenzimidazolyl)methylthio>ethyl]guanidine] |  |  | 1170 | 72 |
| O=c1ccnc(NCCCOc2ccc3[nH]c(CN4CCCCC4)nc3c2)[nH]1 [Example 59, 2-[3-<5-(2-(1-piperidinomethyl)benzimidazolyl)oxy>propylamino]-4-pyrimidone] |  |  | 891 | 74 |
| CN(C)Cc1nc2cc(OCCCNc3ncc(CN(C)C)c(=O)[nH]3)ccc2[nH]1 [Example 60, 5-dimethylaminomethyl-[3-<5-(2-dimethylaminomethylbenzimidazolyl)oxy>propylamino]-4-pyrimidone] |  |  | 3550 | 56 |
| CN(C)Cc1cnc(NCCCOc2ccc3[nH]c(CN4CCCCC4)nc3c2)[nH]c1=O [Example 61, 5-dimethylaminomethyl-2-[3-<5-(2-(1-piperidinomethyl)benzimidazolyl)oxy>propylamino]-4-pyrimidone] |  |  | 3090 | 64 |
| CN(C)Cc1nc2cc(OCCCNc3ncc(Cc4ccc5c(c4)OCO5)c(=O)[nH]3)ccc2[nH]1 [Example 62, 5-[5-(1,3-benzodioxolyl)methyl]-2-[3-<5-(2-dimethylaminomethylbenzimidazolyl)oxy>propylamino]-4-pyrimidone] |  |  | 631 | 84 |
| O=c1[nH]c(NCCCOc2ccc3[nH]c(CN4CCCC4)nc3c2)ncc1Cc1ccc2c(c1)OCO2 [Example 63, 5-[5-(1,3-benzodioxolyl)methyl]-2-[3-<5-(2-(1-pyrrolidinomethyl)benzimidazolyl)oxy>propylamino]-4-pyrimidone] |  |  | 4070 | 78 |
| O=c1[nH]c(NCCCOc2ccc3[nH]c(CN4CCCCC4)nc3c2)ncc1Cc1ccc2c(c1)OCO2 [Example 64, 5-[5-(1,3-benzodioxolyl)methyl]-2-[3-<5-(2-(1-piperidinomethyl)benzimidazolyl)oxy>propylamino]-4-pyrimidone] |  |  | 5890 | 76 |
| O=c1[nH]c(NCCCOc2ccc3[nH]c(CN4CCCC4)nc3c2)ncc1Cc1cccnc1 [Example 67, 2-{3-[5-<2-(1-pyrrolidinomethyl)benzimidazolyl>oxy]propylamino}-5-(3-pyridylmethyl)-4-pyrimidone] |  |  | 4680 | 93 |
| O=c1[nH]c(NCCCOc2ccc3[nH]c(CN4CCCCC4)nc3c2)ncc1Cc1cccnc1 [Example 68, 2-{3-[5-<2-(1-piperidinomethyl)benzimidazolyl>oxy]propylamino}-5-(3-pyridylmethyl)-4-pyrimidone] |  |  | 9550 | 90 |
| CN(C)Cc1nc2cc(CSCCNc3nccc(=O)[nH]3)ccc2[nH]1 [Example 72, 2-[2-<5-(2-dimethyaminomethylbenzimidazolyl)methylthio>ethylamino]-4-pyrimidone] |  |  | 851 | 53 |
| CN(C)Cc1nc2cc(CSCCNc3ncc(CN(C)C)c(=O)[nH]3)ccc2[nH]1 [Example 73, 2-[2-<5-(2-dimethylaminomethylbenzimidazolyl)methylthio>ethylamino]-5-dimethylaminomethyl-4-pyrimidone] |  |  | 631 | 91 |
| CN(C)Cc1nc2cc(CSCCNc3ncc(Cc4cccnc4)c(=O)[nH]3)ccc2[nH]1 [Example 76, 2-[2-<5-(2-dimethylaminomethylbenzimidazolyl)methylthio>ethylamino]-5-(3-pyridylmethyl)-4-pyrimidone] |  |  | 1230 | 102 |
| CN(C)Cc1nc2cc(OCCCNc3nnc(Cc4cccnc4)c(=O)[nH]3)ccc2[nH]1 [Example 83, 3-[3-<5-(2-dimethylaminomethylbenzimidazolyl)oxy>propylamino]-6-(3-pyridylmethyl)-1,2,4-triazine-5-one] |  |  | 4070 | 78 |
| O=c1[nH]c(NCCCOc2ccc3[nH]c(CN4CCCCC4)nc3c2)nnc1Cc1cccnc1 [Example 85, 3-{3-[5-<2-(1-piperidinomethyl)benzimidazolyl>oxy]propylamino}-6-(3-pyridylmethyl)-1,2,4-triazine-5-one] |  |  | 1950 | 46 |
| CN(C)Cc1nc2cc(CSCCNc3nnc(Cc4cccnc4)c(=O)[nH]3)ccc2[nH]1 [Example 87, 3-[2-<5-(2-dimethylaminomethylbenzimidazolyl)methylthio>ethylamino]-6-(3-pyridylmethyl)-1,2,4-triazine-5-one] |  |  | 603 | 84 |
| CN(C)Cc1nc2cc(OCCCNc3nc(N)nn3C)ccc2[nH]1 [Example 91, 1-methyl-5-[3-<5-(2-dimethylaminomethylbenzimidazolyl)oxy>propyl]-1H-1,2,4-triazole-3,5-diamine] |  |  | 6460 | 81 |
| CN(C)Cc1nc2cc(OCCCCNc3nc(N)nn3C)ccc2[nH]1 [Example 92, 1-methyl-5-[4-<5-(2-dimethylaminomethylbenzimidazolyl)oxy>butyl]-1H-1,2,4-triazole-3,5-diamine] |  |  | 5500 | 92 |
| CN(C)Cc1nc2cc(CSCCNc3nc(N)n[nH]3)ccc2[nH]1 [Example 96, 5-[2-<5-(2-dimethylaminomethylbenzimidazolyl)methylthio>ethyl]-1H-1,2,4-triazole-3,5-diamine] |  |  | 933 |  |
| Nc1n[s+]([O-])nc1NCCCOc1ccc2[nH]c(CN3CCCCC3)nc2c1 (centres unmarked) [Example 101] |  |  | 2950 | 97 |
